Assay results reported in paper PMC4920026 (Scientific Reports, 2016).
Like-named read-outs stand apart in the source and are kept apart here.

Molecular target: huPrP(23–230) (Homo sapiens, UniProt P04156)
Type: binding
Conditions: for k2 (microscopic association constant of xenon to the open state): k1 = 0, pH 4.5

[Xe] [xenon]
ΔG24 (free energy of xenon binding to the open state) (binding site A1, 293 K): -19.7 ± 0.3 kJ/M
Kd (binding site A1, Kapp = 1/k2 + k3/k2, 293 K, read-out: Kapp Xe (apparent xenon dissociation constant)): 12.5 mM
k2 (microscopic association constant of xenon to the open state) (binding site A1, 293 K): 3.2 ± 0.4 mM⁻¹
ΔG24 (free energy of xenon binding to the open state) (binding site A2, 293 K): -14.91 ± 0.03 kJ/M
Kd (binding site A2, Kapp = 1/k2 + k3/k2, 293 K, read-out: Kapp Xe (apparent xenon dissociation constant)): 14.6 mM
k2 (microscopic association constant of xenon to the open state) (binding site A2, 293 K): 0.46 ± 0.01 mM⁻¹
ΔG24 (free energy of xenon binding to the open state) (binding site B, 293 K): -20.5 ± 0.2 kJ/M
Kd (binding site B, Kapp = 1/k2 + k3/k2, 293 K, read-out: Kapp Xe (apparent xenon dissociation constant)): 9.1 mM
k2 (microscopic association constant of xenon to the open state) (binding site B, 293 K, k3 set to 39): 4.5 ± 0.4 mM⁻¹
ΔG24 (free energy of xenon binding to the open state) (binding site C, 293 K): -11.5 ± 0.7 kJ/M
Kd (binding site C, Kapp = 1/k2 + k3/k2, 293 K, read-out: Kapp Xe (apparent xenon dissociation constant)): 11.4 mM
k2 (microscopic association constant of xenon to the open state) (binding site C, 293 K): 0.11 ± 0.03 mM⁻¹
ΔG24 (free energy of xenon binding to the open state) (binding site D, 293 K): -14.24 ± 0.02 kJ/M
Kd (binding site D, Kapp = 1/k2 + k3/k2, 293 K, read-out: Kapp Xe (apparent xenon dissociation constant)): 11.8 mM
k2 (microscopic association constant of xenon to the open state) (binding site D, 293 K): 0.34 ± 0.02 mM⁻¹
apparent xenon affinities k2/(1 + k3) (order of magnitude, over all cavities): ~0.1 mM⁻¹
Kd (order of magnitude, over all cavities, read-out: apparent dissociation constants): ~10 mM
